Source: the METLIN SMRT retention time set (Domingo-Almenara et al. 2019)

Experiment: gradient 5% acetonitrile 3 min, to 50% in 2 min, to 85% in 15 min, held 3 min, 100 µL/min
Details: column: Zorbax Extend-C18 2.1 x 50 mm; eluents: water / acetonitrile, 0.1% formic acid
Summary of the method: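 Retention times of pure standards were taken from adduct peaks that were selected by computer and manually inspected. Over 3 months, mixtures of ~100 molecules were run by HPLC–quadrupole time-of-flight mass spectrometry in positive and negative ionization mode. The Zorbax Extend-C18 column (2.1 × 50 mm, 1.8 μm) ran at 100 μL/min in water and acetonitrile, each containing 0.1% formic acid, with 40 μL dead volume and 900 μL dwell volume.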

SMILES	RP-LC retention time [s]
COc1ccc(NC(=O)N2CCCC(C)(C(=O)NCc3cccc(OC)c3)C2)cc1 (centres undefined)	792
Cc1ccc(N2C=C(C(=O)N3CCCCC3)S(=O)(=O)c3ccccc32)cc1C	953
CC(C(=O)N1CCN(c2ncccn2)CC1)n1c2ccccc2c2cnn(C)c(=O)c21 (centres undefined)	794
CCc1ccc(N2C(C)=NS(=O)(=O)c3cccnc32)cc1	874
CN(C)S(=O)(=O)c1ccc(-c2nnc(C(=O)N3CCC(Cc4ccccc4)CC3)o2)cc1	1080
CCOC(=O)C(=O)N1CCN(c2ncnc3c2nnn3C)CC1	643
O=C(Nc1ccc(N2CCN(C3CCCCC3)C2=O)nc1)c1cc(F)cc(F)c1	1020
CCC(C)n1c(=O)c2ccccc2n(Cc2nc(-c3ccc(SC)cc3)no2)c1=O (centres undefined)	1260
COc1ccc(-c2c(C)noc2NC(C)=O)cc1S(=O)(=O)N1CCCCCC1	788
O=C(Cc1nc(-c2ccccc2)n[nH]1)Nc1ccc(F)c(F)c1	757
O=C(Cn1cccc1-c1nnc(-c2ccccc2)o1)Nc1ccc2c(c1)OCCO2	897
O=C(CCc1ccccc1)Nc1cnc(N2CCOCC2)nc1	744
COc1ccccc1OCCNC(=O)CCc1nnc2c3cc(-c4ccc(F)cc4)nn3ccn12	752
Cn1c(N2CCCC(C(=O)NCCN3CCN(c4ccccc4)CC3)C2)cc(=O)n(C)c1=O (centres undefined)	589
Cc1cc(C(=O)Nc2ccc3c(c2)OCO3)c2c(C)nn(-c3cccc(F)c3)c2n1	1170
Cc1ccc(S(=O)(=O)N2CCCC2C(=O)Nc2ccc(Br)cc2)cc1 (centres undefined)	1020
O=C(c1ccccc1[N+](=O)[O-])N1c2nc(-c3ccccc3)nn2C2(CCCCC2)[C@@H]2CCCC[C@@H]21	755
O=C(Nc1ccc(Cl)c(Cl)c1)N1CCN(c2ncc(C(F)(F)F)cc2Cl)CC1	940
COc1ccc(C2Cn3nnc(-c4nc(-c5ccc(Cl)cc5)no4)c3CO2)cc1 (centres undefined)	1240
CCN1CCN(c2nc(F)c3c(c2F)S(=O)(=O)CCN3CC2CCCO2)CC1 (centres undefined)	596
CCOc1ccc(OC(=O)C2CCN(c3nc4ccccc4[nH]3)CC2)cc1	712
COc1ccc(S(=O)(=O)NCc2ccc3c(c2)CCN3C(=O)c2ccc(F)cc2)cc1	927

SMILES	RP-LC retention time [s]
CCCNC(=O)C1CCN(Cc2cc3ccccc3n2Cc2cccc(Cl)c2)CC1	756
CCOC(=O)C1CCN(C(=O)CN2CCN(Cc3ccc(C)cc3)C(=O)C2=O)CC1	710
CC(=O)c1ccc(NC(=O)CN2C(=O)NC3(CCC(C)CC3)C2=O)cc1 (centres undefined)	762
COc1ccc(Cl)cc1NC(=O)CCc1c(-c2ccc(F)cc2)nc2ccccn12	724
CN1CCC(OC2CCN(C(=O)CC3CCCC3)CC2)CC1	596
CNC(=O)c1cc(N2CCCC2)nc2c(Cl)cccc12	620
Cn1cc(-c2cc3n(n2)CCCN3C(=O)CCC(=O)NCCCN2CCOCC2)c2ccccc21	611
O=C(CCn1nnc2ccccc2c1=O)NCC1CCS(=O)(=O)C1 (centres undefined)	585
C#C[C@]1(O)CC[C@H]2[C@@H]3CCC4=CC(=O)CCC4=C3C=C[C@@]21CC	1050
CCOCCCNC(=O)c1nc(Nc2ccc(F)cc2)c2ccccc2n1	746
Cc1cc(C)n(Cc2nc(-c3ccc(NC(=O)CC(C)(C)C)cc3)oc2C)n1	939
COCCN1C(=O)c2ccccc2C(C(=O)NCc2ccccc2)C1c1cccs1 (centres undefined)	842
Cn1nc(-c2nc(C3CC3)no2)c2c1CCN(C(=O)c1ccco1)C2	744
c1ccc(CN2CCN(c3ncccc3-c3nc(-c4ccccc4)no3)CC2)cc1	769
Cc1ccccc1C(=O)Nc1nc(-c2ccc3c(c2)NC(=O)CO3)c(C)s1	898
COc1ccc(NS(=O)(=O)c2cc(-c3cc(C(F)(F)F)on3)sc2C)cc1Cl	1140
CC(C)c1ccc(NC(=O)C2CCCN(c3ncnc4c3nc3n4CCCCC3)C2)cc1 (centres undefined)	899
Clc1nc(Oc2ccccc2)nc(-c2cn(-c3ccccc3)c3ccccc23)n1	732
O=C(Cn1ncc2c(c1=O)N(C1CC1)C(=O)CS2)NCc1ccc2c(c1)OCO2	682
O=C(c1cccc(F)c1)N1CCC2(CC1)N=C(c1ccccc1)NO2	739
COc1ccc(N2CCN(C(=O)C3CCCN(c4nc5ccccc5nc4OC)C3)CC2)cc1 (centres undefined)	1100
CCCCOc1ccc(CNC(=O)c2cc3c(=O)n(C)ccc3n2C)cc1	848
